Reference: patent US20100016440A1, “ALPHA-AMINOAMIDE DERIVATIVES USEFUL AS ANTI-INFLAMMATORY AGENTS” (NEWRON PHARMACEUTICALS S.P.A., priority 2003, published 2010)

Key:
[1] = system: KCl-evoked SP release from spinal cord superfused synaptosomes; experiment: Substance P (SP) release from rat spinal cord synaptosomes; type: cell-based; settings: KCl (35 mM) evoked, RIA, concentrations 0.1 to 30 μM, read-out: IC50 for reducing evoked SP release
Description: Male adult Sprague-Dawley rats were used. Following decapitation, the spinal cord was removed and homogenized in sucrose buffer 0.32 M pH 7.4. Samples were centrifuged at 12000 g for 20 minutes and the synaptosomal fraction was resuspended in physiological buffer. SP release from spinal cord superfused synaptosomes was induced by KCl (35 mM) and measured by RIA method (see Lee C M. et al. (1980) “The development and application of a novel N-terminal directed substance P antiserum”, Life Science 27 (7):535-543).

[2] = system: paw edema induced by carrageenan; experiment: Paw edema carrageenan-induced inflammation; type: in vivo, rat; settings: for volume of paw edema (mean Δml ± s.e. vs basal paw volume): 60' after carrageenan, po 1 h before carrageenan, male Wistar rats; for volume of paw edema (mean Δml ± s.e. vs basal paw volume) / reduction of edema vs. the control vehicle (inhibition): Compound A 30 mg/kg, indomethacin 5 mg/kg; for reduction of edema vs. the control vehicle (inhibition): 4 h after carrageenan injection, oral
Text: The anti-inflammatory activity of the α-aminoamide compounds of formula (I) have proven effective in a rat model of inflammation induced by carrageenan injection.
The potential anti-inflammatory effect of (S)-(+)-2-[4-(2-fluorobenzyloxy)-benzylamino]-propanamide (“compound A”) was investigated in the rat model of inflammatory acute pain induced by subplantar injection of carrageenan. Itraplantar injection of carrageenan elicit a time-dependent increase in paw volume.
Male Wistar rats of 175-200 grams were used. The left hind paw was injected with 100 μl of carrageenan (2% w/v in saline). Compound A (30 mg/kg), indomethacin (5 mg/kg), or control vehicle (such as distilled water) were orally administered 1 h before carrageenan injection. The paw volume was measured with a plethysmometer (Ugo Basile) immediately before (basal) and 1, 2, 3, 4 and 5 h after the carrageenan injection.

[3] = system: inflamed joint induced by carrageenan; settings: cited from earlier work

| Structure (SMILES) | IC50 [1] | volume of paw edema (mean Δml ± s.e. vs basal paw volume) [2] | reduction of edema vs. the control vehicle (inhibition) [2] | paw edema formation (in words) ([2]; Compound A 30 mg/kg oral, 1-5 h after carrageenan) | mechanical hyperalgesia (in words) [3] | swelling and stiffness of the inflamed joint (in words) [3] |
| --- | --- | --- | --- | --- | --- | --- |
| C[C@H](NCc1ccc(OCc2ccccc2F)cc1)C(N)=O [Compound A, (S)-(+)-2-[4-(2-fluorobenzyloxy)-benzylamino]-propanamide] | 2.12 µM | 0.19 ± 0.03 mL | 40% | prevented paw edema formation at all time points considered |  |  |
| COc1ccc2c(c1)c(CC(=O)O)c(C)n2C(=O)c1ccc(Cl)cc1 [Indomethacin, indomethacin] |  | 0.29 ± 0.04 mL | about 50% |  |  |  |
| C[C@@H](CN1CC[C@@]2(C)c3cccc(O)c3C[C@@H]1C2(C)C)OCc1ccccc1 [crobenetine] |  |  |  |  | able to reverse the mechanical hyperalgesia | without any effect |
| Cc1cccc(C)c1OCC(C)N (stereo not shown) [mexeletine] |  |  |  |  | able to reverse the mechanical hyperalgesia | without any effect |
